{"source": "patent US12569506B2", "about": "“Methods of treating osteonecrosis with LLP2A-bisphosphonate compounds” (The Regents of the University of California, priority 2016, dated 2026)", "key": {"[1]": {"system": "dexamethasone-treated mice", "assay": "Histological evaluation (H&E) of femoral epiphyses, 90 day model", "assay_type": "in vivo, BALB/c mice", "experimental": "FIG. 9A-9F. Histological evaluation of femurs from placebo- or dexamethasone-treated mice. Mice were treated with placebo (PL) or dexamethasone alone (Dex) as described above for FIG. 7. All mice were euthanized at day 90. Right and left distal femurs were fixed in 10% neutral buffer formalin and decalcified. The specimens were dehydrated, embedded in paraffin, cut into 5 micron sections and H&E stained. The sections were scored by two experienced histologists and then a consensus reading was performed by two additional histologists. FIG. 9A-9B: 4× (A) and 20× (B) magnifications of representative proximal femoral epiphyses in mice treated with placebo. (C) 4× magnification of a representative proximal femoral epiphyses in mice treated with dexamethasone (Dex) alone. FIGS. 9D, 9E, and 9F: 20× magnifications of representative proximal femoral epiphyses in mice treated with dexamethasone (Dex) alone.\nFIG. 11A-11F. Histological evaluation of femurs from LLP2A-Ale-treated mice. Mice were treated with Dex+250 μg/kg LLP2A-Ale as described above for FIG. 7. All mice were euthanized at day 90. Right and left distal femurs were fixed in 10% neutral buffer formalin and decalcified. The specimens were dehydrated, embedded in paraffin, cut into 5 micron sections and H&E stained. The sections were scored by two experienced histologists and then a consensus reading was performed by two additional histologists. (A, D): 4× magnifications of representative proximal femoral epiphyses in mice treated with Dex+LLP2A-Ale. (B, C, E, F): 20× magnifications of representative proximal femoral epiphyses in mice treated with Dex+LLP2A-Ale.\n(§1) Both the right and left distal femurs were fixed in 10% neutral buffered formalin and were shaken for 3 days, then decalcified in 5% EDTA until the bones were fully decalcified. The specimens were then processed in ascending concentrations of ethanol and embedded in paraffin. Tissue sections were cut into 5 microns sections, stained with hematoxylin and eosin and evaluated for the presence of osteonecrosis by bright field microscopy at 20× magnification. Experimental methods are also described in Mohan et al., Calif Tissue Int (2016) doi:10.1007/s00223-016-0195-6, which is incorporated herein by reference in its entirety for all purposes. Osteonecrosis was detected using modified criteria reported by Yang el al., (a mouse model for glucocorticoid-induced osteonecrosis: Effect of a steroid holiday. J Orthop Res. 2009; 27:169-75) which defines osteonecrosis as requiring all of the following changes: (1) empty lacunae, (2) pyknotic osteocyte nuclei in areas of empty lacunae and necrosis of adjacent bone marrow, (3) presence of excessive fat cells in the bone marrow, (4) cartilage degradation and (5) presence of fibrin thrombi in the blood vessels. In addition, trabecular bone volume, adipose volume, sinusoid volume and osteoblast surface at the distal femoral epiphyses were measured. Empty lacunae density was calculated by empty lacunae/total osteocytes within the entire distal femoral epiphysis region for each sample. Each section was scored by two experienced histologists, then a consensus reading was performed by two additional experienced histologists."}, "[2]": {"system": "dexamethasone-treated mice", "assay": "30 and 45 day prevention study: trabecular bone histology of distal femur epiphyses", "assay_type": "in vivo, BALB/c mice", "experimental": "The efficacy of LLP2A-Ale and hPTH (1-34) was evaluated over a 30 and 45 day study using a mouse model of glucocorticoid-induced osteonecrosis. Seven week-old male BALB/c mice were randomized into Placebo group (fresh water), glucocorticoid only (4 mg/L dexamethasone (Dex) in drinking water), Dex+250 μg/kg LLP2A-Ale, Dex+500 μg/kg LLP2A-Ale, or Dex+40 μg/kg hPTH (administered five times a week) for 30 or 45 days. At day 30 or 45, the mice were sacrificed. Study endpoints included histological evidence of osteonecrosis, bone mass, and prevalent blood vessels (CD31 and Endomucin expression) in the distal femur, and was performed as set forth in Example 2. Non-parametric Kruskal-Wallis tests were used to determine the differences between the groups."}, "[3]": {"system": "glucocorticoid-treated mice", "assay": "Trabecular bone volume in glucocorticoid-treated mice", "assay_type": "in vivo", "conditions": "GC 28 days then treatment", "experimental": "FIG. 6. Trabecular bone volume in glucocorticoid-treated mice. Mice were treated for 28 days with glucocorticoid (GC), then treated with either LLP2A-Ale, PTH, or LLP2A-Ale+PTH. The outcome measure was the change in trabecular bone mass from day 28 to 56, measured in vivo at the distal femur (left panel) and change in trabecular bone mass for the vertebral trabecular bone volume (right panel).\nChanges in trabecular bone mass during the treatment period for the distal femur and vertebral trabecular bone volume were measured."}, "[4]": {"system": "dexamethasone-treated mice", "assay": "Adipose and sinusoid volume of distal femoral epiphysis, 90 day model", "assay_type": "in vivo, BALB/c mice", "experimental": "FIG. 10A-10B. Adipose and sinusoid volume of femurs from treated mice. Mice were treated with placebo (PL), dexamethasone alone (Dex), Dex+250 μg/kg LLP2A-Ale, Dex+500 μg/kg LLP2A-Ale, or Dex+750 μg/kg LLP2A-Ale as described above for FIG. 7. (A) Mice were assessed for adipose volume within the distal femoral epiphysis region. […] (B) Mice were assessed for sinusoids in the bone marrow.\nas §1"}, "VEGF": {"system": "VEGF", "assay": "Serum VEGF levels by ELISA in glucocorticoid-treated mice", "assay_type": "in vivo", "conditions": "day 56; GC from day 1; LLP2A-Ale given at day 28; ELISA in duplicate (FIG. 4)", "experimental": "FIG. 4. Serum VEGF-A levels in glucocorticoid-treated mice. Mice treated with placebo (PL), glucocorticoid (GC), glucocorticoid and 250 μg/kg LLP2A-Ale (GC+LLP2A-Ale), glucocorticoid and PTH (GC+PTH), or glucocorticoid and PTH and 250 μg/kg LLP2A-Ale (GC+PTH+LLP2A-Ale) were measured for serum levels of VEGF.\nIncreased blood vessel formation can also be assessed by marker analysis. For example, VEGF is a pro-angiogenic factor and stimulates new blood vessel formation. […] PTH was given 20 ug/kg 5× a week, while LLP2A-Ale was given at […] at day 28 only."}}, "note": "“Also recorded” adds a separate entry of the source.", "data": [{"compound": "Cc1ccccc1NC(=O)Nc1ccc(CC(=O)N[C@@H](CCCCNC(=O)/C=C/c2cccnc2)C(=O)N[C@@H](CCCC(=O)O)C(=O)NC2(C(=O)NCCOCCOCCNC(=O)CCC(=O)NCCOCCOCCNC(=O)CCC(=O)N[C@@H](CCCCNC(=O)[C@H](N)CSC3CC(=O)N(CC4CCC(C(=O)NCCCC(O)(P(=O)(O)O)P(=O)(O)O)CC4)C3=O)C(N)=O)CCCCC2)cc1", "note": "(stereo partly drawn) [LLP2A-Ale]", "values": [{"measurement": "Sinusoid formation (histological sections of epiphyses)", "setting": "[1]; Dex+250 μg/kg LLP2A-Ale, day 90, H&E (FIG. 11)", "result": "increased sinusoid formation; also recorded: increase in sinusoid formation"}, {"measurement": "Amount of fibrin within the bone marrow", "setting": "[1]; day 90", "result": "appeared to reduce the amount of fibrin"}, {"measurement": "Number of osteoblasts on the bone surface in areas of osteonecrosis", "setting": "[1]; epiphyses, day 90", "result": "increased the number of osteoblasts"}, {"measurement": "Adipocyte density in the bone marrow", "setting": "[1]; vs dexamethasone alone, day 90", "result": "appeared to reduce"}, {"measurement": "Cellularity of the bone marrow", "setting": "[1]; vs dexamethasone alone, day 90", "result": "maintained the cellularity of the bone marrow"}, {"measurement": "Number of empty lacunae/pyknotic nuclei", "setting": "[1]; vs dexamethasone alone, day 90", "result": "appeared to reduce"}, {"measurement": "Sinusoidal red blood cell volume", "setting": "[1]; vs dexamethasone alone, day 90", "result": "increased the sinusoidal red blood cell volume"}, {"measurement": "Trabecular bone volume", "setting": "[2]; day 30 and 45, Dex vs placebo, treated vs Dex (p<0.05)", "result": "higher bone volume"}, {"measurement": "Trabecular separation", "setting": "[2]; vs Dex group, day 30 and 45 (p<0.05)", "result": "lower trabecular separation"}, {"measurement": "Change in trabecular bone mass/volume at the distal femur", "setting": "[3]; change from day 28 to 56, measured in vivo (FIG. 6 left)", "result": "increased the distal femur trabecular bone volume to the baseline/sham level"}, {"measurement": "Vertebral trabecular bone volume", "setting": "[3]; day 28 to 56 (FIG. 6 right)", "result": "increased the bone volume relative to the glucocorticoid-treated mice"}, {"measurement": "Sinusoid volume on increasing the dose", "setting": "[4]; LLP2A-Ale above 250 μg/kg vs 250 μg/kg", "result": "marginal decrease"}, {"measurement": "Adipose volume within the distal femoral epiphysis", "setting": "[4]; all three dosages (250, 500, 750 μg/kg) vs Dex alone, day 90 (FIG. 10A)", "result": "reduced adipose volumes"}, {"measurement": "Sinusoid volume in the bone marrow", "setting": "[4]; all three dosages vs placebo or Dex alone, day 90 (FIG. 10B)", "result": "increased sinusoid volumes"}, {"measurement": "Serum levels of VEGF", "setting": "VEGF", "result": "returned the levels of serum VEGF to those of placebo treated animals"}]}]}
